Data published in patent publication US4479941A, “Renin inhibitory peptides having PHE^13 delection” (Merck & Co., Inc., priority 1982, dated 1984).
Square brackets hold non-standard residues; d marks the D form. Peptide text beside a SMILES is read from it. * marks the point of attachment. Sta = CC(C)C[C@H](N)[C@@H](O)CC(=O)O; X2 = c1ccc(CC(N*)c2ccccc2)cc1; NH(CH2)3Ph = c1ccc(CCCN*)cc1; NHPhenethyl = c1ccc(CCN*)cc1; X5 = c1ccc(CN2CCC(N*)CC2)cc1; Isobutyryl = CC(C)C(=O)*; Boc = CC(C)(C)OC(=O)*; NHBn = c1ccc(CN*)cc1; X3 = OCCN(CCO)CCCN*

Biological target: T1, human kidney renin (Homo sapiens, UniProt P00797)
T1 construct: human kidney renin purified as described in Bangham; from tissue; host or cells: human kidney
T1 sequence (P00797 67-406): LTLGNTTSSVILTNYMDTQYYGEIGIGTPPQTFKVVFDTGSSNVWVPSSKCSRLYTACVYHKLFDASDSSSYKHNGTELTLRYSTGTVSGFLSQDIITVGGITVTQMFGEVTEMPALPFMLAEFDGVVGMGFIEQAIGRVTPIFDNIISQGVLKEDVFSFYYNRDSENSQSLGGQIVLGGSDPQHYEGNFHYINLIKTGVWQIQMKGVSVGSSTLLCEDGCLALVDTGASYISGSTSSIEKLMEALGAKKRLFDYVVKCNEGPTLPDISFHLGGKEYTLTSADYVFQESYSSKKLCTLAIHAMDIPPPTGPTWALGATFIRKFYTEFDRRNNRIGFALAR
Assay: Human renin inhibition
Type: biochemical
Conditions: purified human kidney renin; read-out: KI (dissociation constant of the inhibited enzyme-inhibitor complex)
Description: An assay was carried out in order to determine the inhibitory potency of the peptides of the present invention. The assay measured the inhibition of human kidney renin purified as described in Bangham, D. R., Robertson, I., Robinson, J. I. S., Robinson, C. J., and Tree, M., Clinical Science and Molecular Medicine, 48 (Supp. 2): 136s-159s (1975), and further purified by affinity chromatography on pepstatin-aminohexyl-Sepharase as described in Poe, M., Wu., J. K., Florance, J. R., Radkey, J. A., Bennett, C. D., and Hoagsteen, K., J. Biol. Chem. (1982, in press). The assay was also in accordance with Poe et al. cited above. Results are expressed as KI values, which refer to the dissociation constant of the inhibited enzyme-inhibitor complex. This KI value was obtained as described above.

| Ki | Compound |
| --- | --- |
| 0.06 nM | CC(C)C[C@H](NC(=O)C[C@H](O)[C@H](CC(C)C)NC(=O)[C@H](Cc1c[nH]cn1)NC(=O)[C@H](Cc1ccccc1)NC(=O)OC(C)(C)C)C(=O)NC1CCN(Cc2ccccc2)CC1 [BOC--Phe-His-Sta-Leu-(4-amido-1-benzylpiperidine)] (Boc-FH[Sta]L-X5) |
| 52 nM | CC(C)C[C@H](NC(=O)C[C@H](O)[C@H](CC(C)C)NC(=O)[C@H](Cc1c[nH]cn1)NC(=O)[C@H](Cc1ccccc1)NC(=O)OC(C)(C)C)C(=O)NCCCN(CCO)CCO [BOC--Phe-His-Sta-Leu-[N-(3-amidopropyl)diethanolamine]] (Boc-FH[Sta]L-X3) |
| 12 nM | CC(C)C[C@H](NC(=O)C[C@H](O)[C@H](CC(C)C)NC(=O)[C@H](Cc1c[nH]cn1)NC(=O)[C@H](Cc1ccccc1)NC(=O)[C@@H]1CCCN1C(=O)[C@H](Cc1c[nH]cn1)NC(=O)C(C)C)C(=O)NCc1ccccc1 [N-Isobutyryl-L-histidyl-L-prolyl-L-phenylalanyl-L-histidyl-(3S,4S)-statyl-L-leucyl-benzylamide] (Isobutyryl-HPFH[Sta]L-NHBn) |

System: aspartyl proteases such as pepsin, cathepsin D, and renin
Assay: not given
Conditions: other acid proteases; cited from earlier work

| Compound | inhibition of aspartyl proteases (selectivity) |
| --- | --- |
| pepstatin | inhibition of a variety of other acid proteases in addition to renin |

Biological target: hog kidney renin (Sus scrofa, UniProt A0A287APG1)
Sequence (A0A287APG1 67-407): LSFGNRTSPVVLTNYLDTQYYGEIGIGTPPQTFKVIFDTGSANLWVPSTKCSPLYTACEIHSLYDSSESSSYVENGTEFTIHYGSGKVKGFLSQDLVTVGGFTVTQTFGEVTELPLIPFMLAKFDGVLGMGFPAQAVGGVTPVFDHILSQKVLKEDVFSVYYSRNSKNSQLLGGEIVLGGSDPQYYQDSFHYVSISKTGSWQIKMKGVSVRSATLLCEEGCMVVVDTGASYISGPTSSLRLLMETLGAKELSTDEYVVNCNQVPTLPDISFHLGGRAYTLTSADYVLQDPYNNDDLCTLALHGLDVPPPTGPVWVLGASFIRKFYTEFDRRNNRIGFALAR
Assay: Hog renin inhibition
Type: biochemical
Conditions: pH 7.3, read-out: I50 (concentration of peptide inhibitor necessary to produce 50% inhibition of renin activity)
Description: An assay was carried out in order to determine the inhibitory potency of the peptides of the present invention.

| Compound | IC50 |
| --- | --- |
| CC(C)C[C@H](NC(=O)C[C@H](O)[C@H](CC(C)C)NC(=O)[C@H](Cc1c[nH]cn1)NC(=O)[C@H](Cc1ccccc1)NC(=O)[C@@H]1CCCN1C(=O)[C@H](Cc1c[nH]cn1)NC(=O)C(C)C)C(=O)NCCc1ccccc1 [IBU--His-Pro-Phe-His-Sta-Leu-2-phenylethylamide] (Isobutyryl-HPFH[Sta]L-NHPhenethyl) | 30 nM |
| CC(C)C[C@H](NC(=O)C[C@H](O)[C@H](CC(C)C)NC(=O)[C@H](Cc1c[nH]cn1)NC(=O)[C@H](Cc1ccccc1)NC(=O)OC(C)(C)C)C(=O)N[C@@H](CC(C)C)[C@@H](O)CC(=O)O [BOC--Phe--His--Sta--Leu--Sta, BOC--Phe-His-Sta-Leu-Sta] (Boc-FH[Sta]L[Sta]-OH) | 36 nM |
| CC(C)C[C@H](NC(=O)C[C@H](O)[C@H](CC(C)C)NC(=O)[C@H](Cc1c[nH]cn1)NC(=O)[C@H](Cc1ccccc1)NC(=O)[C@@H]1CCCN1C(=O)[C@H](Cc1c[nH]cn1)NC(=O)C(C)C)C(=O)NCc1ccccc1 [N-Isobutyryl-L-histidyl-L-prolyl-L-phenylalanyl-L-histidyl-(3S,4S)-statyl-L-leucyl-benzylamide] (Isobutyryl-HPFH[Sta]L-NHBn) | 13 nM |
| CC(C)C[C@H](NC(=O)C[C@H](O)[C@H](CC(C)C)NC(=O)[C@H](Cc1c[nH]cn1)NC(=O)[C@H](Cc1ccccc1)NC(=O)OC(C)(C)C)C(=O)NCc1ccccc1 [BOC--Phe--His--Sta--Leu--benzylamide, BOC--Phe-His-Sta-Leu-benzylamide] (Boc-FH[Sta]L-NHBn) | 11 nM |
| CC(C)C[C@H](NC(=O)C[C@H](O)[C@H](CC(C)C)NC(=O)[C@H](Cc1c[nH]cn1)NC(=O)[C@H](Cc1ccccc1)NC(=O)[C@@H]1CCCN1C(=O)[C@H](Cc1c[nH]cn1)NC(=O)C(C)C)C(=O)NCCCc1ccccc1 [IBU--His-Pro-Phe-His-Sta-Leu-3-phenylpropylamide] (Isobutyryl-HPFH[Sta]L-{NH(CH2)3Ph}) | 19 nM |

More lines, now with the values ahead:

| IC50 | Compound |
| --- | --- |
| 11 nM | CC(C)C[C@H](NC(=O)C[C@H](O)[C@H](CC(C)C)NC(=O)[C@H](Cc1c[nH]cn1)NC(=O)[C@H](Cc1ccccc1)NC(=O)OC(C)(C)C)C(=O)NC(C)c1cccc2ccccc12 (single isomer, unassigned) [BOC--Phe-His-Sta-Leu-(+)-α-naphthylethylamide] |
| 3.4 nM | CC(=O)N[C@@H](Cc1ccccc1)C(=O)N[C@@H](Cc1c[nH]cn1)C(=O)N[C@@H](Cc1ccccc1)[C@@H](O)CC(=O)N[C@@H](CC(C)C)C(=O)NCc1ccccc1 [Acetyl--Phe-His-AHPPA-Leu-benzylamide] |
| 1.4 nM | CC(C)C[C@H](NC(=O)C[C@H](O)[C@H](Cc1ccccc1)NC(=O)[C@H](Cc1c[nH]cn1)NC(=O)[C@H](Cc1ccccc1)NC(=O)OC(C)(C)C)C(=O)NCc1ccccc1 [BOC--Phe--His--AHPPA--Leu--benzylamide, BOC--Phe-His-AHPPA^4 -Lleu-benzylamide] |
| 5.6 nM | CC(C)C[C@H](NC(=O)C[C@H](O)[C@H](CC(C)C)NC(=O)[C@H](Cc1c[nH]cn1)NC(=O)[C@H](Cc1ccccc1)NC(=O)[C@@H]1CCCN1C(=O)[C@H](Cc1c[nH]cn1)NC(=O)C(C)C)C(=O)NC(Cc1ccccc1)c1ccccc1 (stereo partly drawn) [IBU--His-Pro-Phe-His-Sta-Leu-1,2-diphenylethylamide] (Isobutyryl-HPFH[Sta]L-X2) |

System: hog renin
Assay: not given
Conditions: after injection of hog renin into nephrectomized rats (Gross et al. 1971); cited from earlier work

| Compound | reduction of blood pressure in vivo |
| --- | --- |
| pepstatin | reduce blood pressure in vivo |
